# Measurements published in US20050214220A1, “Tumor model” (vivoPharm Pty Ltd., priority 2004, published 2005).
# Tested on: HC11-NeuT mammary tumors
# Experiment: In vivo efficacy in orthotopic HC11-NeuT mammary tumor model
# Set-up: species or system Balb/c mice
# Conditions: intravenous, 10 mg/kg body weight
# Excerpt: HC11 cells were infected with the pBabe-puro retrovirus as described in Morgenstern and Land (1990) Nucl. Acids Res. 18:3587-3596. Cells were either infected with the pBabe-puro encoding oncogenic NeuT (pBabe-puro NeuT) or control pBabe-puro. In this case, oncogenic activation is by the ErbB2 receptor tyrosine kinase (RTK). The receptor is constitutively activated in a ligand-independent manner due to spontaneous dimerization.
# High-titer, helper-free recombinant retroviruses were produced from BOSC-23 cells transiently transfected with plasmid DNA, using the CaPO4 technique, as described in Pear et al. (1993) Proc. Natl. Acad. Sci. 90:8392-8396. HC11 cells were infected by exposure to filtered conditioned medium from 24-48 h transfected BOSC-23 cultures, in the presence of 40 μg/ml polybrene. One day later the medium was replaced with fresh virus-containing medium. Cells were trypsinized, split 1:2 into HC11 growth medium containing 0.75 μg/ml puromycin and selected for 3-4 days. One day before harvesting, the cells were cultured in the absence of puromycin, trypsinized cells were washed, resuspended at 0.5-1.0×10^6 cells/10 μl PBS and implanted in the fat pad as described in below.
# All experiments were performed with Balb/c mice. Transplants were performed on 8-10 week-old females. The anesthetized mouse was pinned on a cork board and scrubbed with 70% ethanol. […]
compound,measurement,value
CC(=O)O[C@H]1C(=O)[C@@]2(C)[C@H]([C@H](OC(=O)c3ccccc3)[C@]3(O)C[C@H](OC(=O)[C@H](O)[C@@H](NC(=O)c4ccccc4)c4ccccc4)C(C)=C1C3(C)C)[C@]1(OC(C)=O)CO[C@@H]1C[C@@H]2O [Taxol],reduction of tumor growth or cell proliferation,no significant reduction
